Read-outs that look alike come from different tables or passages of the source. Non-standard residues stand in square brackets, D forms with d. Residues, ends and D or L forms follow the SMILES beside them. *: point of attachment. Hyp = O=C(O)[C@@H]1C[C@@H](O)CN1; Nle = CCCC[C@H](N)C(=O)O; NH(CH2)3NH2 = NCCCN*; Bn = c1ccc(C*)cc1
Key:
[1] = target: T1, MC1-R (B-16 mouse melanoma cells) (Mus musculus, UniProt Q01727); test: Competitive inhibition binding assay, 125I-NDP-α-MSH, MC1-R; settings: 1 μM compound; inhibition of 125I-NDP-α-MSH binding; mean of triplicates; results less than 0% reported as 0%
T1 construct: B-16 mouse melanoma cells (containing MC1-R); endogenous in cells; host or cells: B-16 mouse melanoma cells
Outline: (§1)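 Membranes from hMC3-R, hMC4-R or hMC5-R cells, or B-16 mouse melanoma cells (MC1-R), were incubated 90 min at room temperature with 0.4 nM 125I-NDP-α-MSH in HEPES pH 7.2 with Mg2+/Ca2+/K+, and test compound generally at 1 μM. Filter-bound radioactivity was gamma counted. Specific binding was defined with 1 μM α-MSH; triplicate means.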

[2] = target: T1, MC1-R (B-16 mouse melanoma cells); test: cAMP assay for agonist/antagonist status, MC1-R; assay type: cell-based
Experimental: (§2) The Ki (nM) of certain peptidomimetics were determined, as was the agonist/antagonist status with respect to MC4-R, Functional evaluation of compounds at melanocortin receptors was performed by measuring the accumulation of intracellular cAMP in HEK-293 cells expressing MC3-R, MC4-R or MC5-R, and in B-16 mouse melanoma cells (containing MC1-R). Antagonistic activity was determined by measuring the inhibition of α-MSH-induced cAMP levels following exposure to the compounds. Cells, suspended in Earle's Balanced Salt Solution containing 10 mM HEPES, pH 7.5, 5 mM MgCl2, 1 mM glutamine, 0.1% albumin and 0.6 mM 3-isobutyl-1-methyl-xanthine, a phosphodiesterase inhibitor, were plated in 96 well plates at a density of 0.5×10^5 cells per well. Cells were incubated with the test compounds in the presence or absence of α-MSH for 1 hour at 37° C. cAMP levels were measured by EIA (Amersham) in the cell lysates. Data analysis and EC50 values were determined using nonlinear regression analysis with Prism Graph-Pad software.

MC4-R (HEK-293 cells) = target: T2, MC4-R (HEK-293 cells) (Homo sapiens, UniProt P32245); test: cAMP assay for agonist/antagonist status, MC4-R; assay type: cell-based
T2 construct: expressed in transfected cells; host or cells: HEK-293
Experimental: as §2

MC5-R (HEK-293 cells) = target: T3, MC5-R (HEK-293 cells) (Homo sapiens, UniProt P33032); test: cAMP assay for agonist/antagonist status, MC5-R; assay type: cell-based
T3 construct: expressed in transfected cells; host or cells: HEK-293
Experimental: as §2

MC3-R = MC3-R (Homo sapiens, UniProt P41968); test: Competitive inhibition binding assay, 125I-NDP-α-MSH, MC3-R; parameters: expressed in transfected cells; settings: 1 μM compound; inhibition of 125I-NDP-α-MSH binding; mean of triplicates; results less than 0% reported as 0%
Outline: as §1

MC4-R = MC4-R (Homo sapiens, UniProt P32245); test: Competitive inhibition binding assay, 125I-NDP-α-MSH, MC4-R; parameters: expressed in transfected cells; settings: 1 μM compound; inhibition of 125I-NDP-α-MSH binding; mean of triplicates; results less than 0% reported as 0%
Outline: as §1

MC5-R = MC5-R (Homo sapiens, UniProt P33032); test: Competitive inhibition binding assay, 125I-NDP-α-MSH, MC5-R; parameters: expressed in transfected cells; settings: 1 μM compound; inhibition of 125I-NDP-α-MSH binding; mean of triplicates; results less than 0% reported as 0%
Outline: as §1

T3 sequence (P33032 whole entry): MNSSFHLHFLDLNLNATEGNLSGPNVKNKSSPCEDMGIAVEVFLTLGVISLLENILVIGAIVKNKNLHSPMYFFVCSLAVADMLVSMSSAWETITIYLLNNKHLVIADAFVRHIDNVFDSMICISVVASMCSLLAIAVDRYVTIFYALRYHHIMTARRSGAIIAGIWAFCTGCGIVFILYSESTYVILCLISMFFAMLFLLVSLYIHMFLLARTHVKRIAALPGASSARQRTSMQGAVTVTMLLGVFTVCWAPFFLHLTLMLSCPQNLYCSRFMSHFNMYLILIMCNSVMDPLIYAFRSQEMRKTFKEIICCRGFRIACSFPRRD
Sequence of MC5-R (P33032 whole entry): as above
Sequence of MC3-R (P41968 whole entry): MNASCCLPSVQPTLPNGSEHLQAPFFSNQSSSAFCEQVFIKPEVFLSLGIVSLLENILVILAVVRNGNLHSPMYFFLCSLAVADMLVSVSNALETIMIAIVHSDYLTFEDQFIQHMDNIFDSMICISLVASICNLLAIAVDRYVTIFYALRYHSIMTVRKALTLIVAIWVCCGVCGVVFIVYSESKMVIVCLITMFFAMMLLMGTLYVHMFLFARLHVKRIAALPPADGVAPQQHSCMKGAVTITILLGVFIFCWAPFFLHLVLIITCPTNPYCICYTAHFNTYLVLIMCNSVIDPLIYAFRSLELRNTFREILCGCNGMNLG
Sequence of MC4-R (P32245 whole entry): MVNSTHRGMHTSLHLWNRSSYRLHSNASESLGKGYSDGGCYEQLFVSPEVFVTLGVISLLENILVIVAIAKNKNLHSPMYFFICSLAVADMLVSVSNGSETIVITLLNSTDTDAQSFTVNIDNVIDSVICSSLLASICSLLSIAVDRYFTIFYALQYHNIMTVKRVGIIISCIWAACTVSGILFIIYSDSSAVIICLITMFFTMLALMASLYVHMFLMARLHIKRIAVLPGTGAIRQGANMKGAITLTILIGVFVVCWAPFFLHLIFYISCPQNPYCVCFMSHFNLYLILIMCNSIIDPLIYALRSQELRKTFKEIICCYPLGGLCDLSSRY
T2 sequence (P32245 whole entry): as above
T1 sequence (Q01727 whole entry): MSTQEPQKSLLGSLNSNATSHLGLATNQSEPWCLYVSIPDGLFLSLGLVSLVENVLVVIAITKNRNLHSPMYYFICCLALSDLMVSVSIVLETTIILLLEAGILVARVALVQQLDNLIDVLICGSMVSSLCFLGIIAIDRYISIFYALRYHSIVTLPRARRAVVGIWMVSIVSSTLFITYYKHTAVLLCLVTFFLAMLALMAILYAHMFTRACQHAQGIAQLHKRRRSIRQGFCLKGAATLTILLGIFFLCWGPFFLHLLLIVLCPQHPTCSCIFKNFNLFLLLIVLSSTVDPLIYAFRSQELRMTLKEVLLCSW

| Structure (SMILES) | Inhibition at 1 μM MC1-R [1] [%] | agonist/antagonist status as to MC1-R [2] | agonist/antagonist status as to MC4-R (MC4-R (HEK-293 cells)) | agonist/antagonist status as to MC5-R (MC5-R (HEK-293 cells)) | Inhibition at 1 μM MC3-R (MC3-R) [%] | Inhibition at 1 μM MC4-R (MC4-R) [%] | Inhibition at 1 μM MC5-R (MC5-R) [%] | agonist/antagonist status as to MC1-R ([2]; listed as Compound 1) |
| --- | --- | --- | --- | --- | --- | --- | --- | --- |
| NCCCC[C@H]1C(=O)N(CCc2ccc3ccccc3c2)CCN1C(=O)[C@@H](Cc1ccc(Cl)cc1Cl)NC(=O)[C@@H](N)COCc1ccccc1 [Example 22] | 40 | agonist | agonist | agonist | 47 | 98 | 76 |  |
| CCCC[C@H](NC(C)=O)C(=O)N[C@@H](C)C(=O)N[C@@H](Cc1cnc[nH]1)C(=O)N[C@H](Cc1ccccc1)C(=O)N1C[C@H](OCc2ccccc2)C[C@H]1C(=O)NCCCN [Example 133] (Ac-[Nle]AH[dF][Hyp](Bn)-{NH(CH2)3NH2}) | 91 | agonist |  |  | 13 | 8 | 25 | full agonistic activity |
| NC(=O)NCCC[C@H]1C(=O)N(CCc2ccc3ccccc3c2)CCN1C(=O)[C@@H](Cc1ccc(Cl)cc1Cl)NC(=O)[C@@H](N)COCc1ccccc1 [Example 44] | 8 | agonist | agonist | agonist | 43 | 94 | 66 |  |
| N=C(N)NCCC[C@H]1C(=O)N2C(CC[C@@H]2COc2ccc3ccccc3c2)N1C(=O)[C@@H](Cc1ccc(Cl)cc1Cl)NC(=O)[C@@H]1C[C@@H](OCc2ccccc2)CN1 (stereo partly drawn) [Example 113] | 53 | agonist | antagonist | agonist | 84 | 100 | 100 |  |
| NCCCC[C@H]1C(=O)N(CCc2ccc3ccccc3c2)CCN1C(=O)[C@@H](Cc1ccc(Cl)cc1Cl)NCc1ccc2ccccc2c1 [Example 41] | 4 | antagonist | antagonist | agonist | 4 | 84 | 2 |  |
| NCCCC[C@H]1C(=O)N(CCc2ccc3ccccc3c2)CCN1C(=O)[C@@H](Cc1ccc(Cl)cc1Cl)NC(=O)c1cccc(Oc2ccccc2)c1 [Example 38] | 3 | antagonist | antagonist | agonist | 21 | 97 | 61 |  |
| N=C(N)NCCC[C@H]1C(=O)N2C(CC[C@@H]2COc2ccc3ccccc3c2)N1C(=O)[C@@H](Cc1ccc(Cl)cc1Cl)NC(=O)[C@@H](N)COCc1ccccc1 (stereo partly drawn) [Example 114] | 53 | agonist | agonist | agonist | 77 | 100 | 94 |  |
| NCCCC[C@H]1C(=O)N(CCc2ccc3ccccc3c2)CCN1C(=O)[C@@H](Cc1ccc(Cl)cc1Cl)NCCOCc1ccccc1 [Example 40] | 27 | antagonist | antagonist | agonist | 17 | 91 | 30 |  |
| NCCCC[C@H]1C(=O)N(CCc2ccc3ccccc3c2)CCN1C(=O)[C@@H](Cc1ccc(Cl)cc1Cl)NC(=O)[C@@H]1C[C@@H](OCc2ccccc2)CN1 [Example 25] | 21 | agonist | agonist | agonist | 61 | 100 | 83 |  |
| NCCCC[C@H]1C(=O)N(CCc2ccc3ccccc3c2)CCN1C(=O)[C@@H](Cc1ccc(Cl)cc1Cl)NC(=O)C/C=C/c1ccccc1 [Example 33] | 14 | antagonist | antagonist | agonist | 25 | 91 | 61 |  |

Reference: US7807678B2, “Peptidomimetics of biologically active metallopeptides” (Palatin Technologies, Inc., priority 2001, dated 2010)
